The values below come from patent US5859007A, “CCK or gastrin modulating benzo [b][1,4] diazepines derivatives” (Glaxo Wellcome Inc., priority 1994, dated 1999).

This test relates to isolated guinea pig gallbladder. Put plainly: Functional activity in isolated guinea pig gallbladder preparation. Type of test: cell-based. As to conditions: expressed as % CCK-induced maximal response; for activation at 1 µM / activation at 30 µM: Cavia porcellus; for activation at 1 µM: read-out: %Contraction (1 × 10^-6 M); for activation at 30 µM: 3 × 10^-5 M test compound, read-out: % Contraction (3 × 10^-5 M). As to the method: 3. GUINEA PIG GALL BLADDER ASSAY
Gallbladders are removed from guinea pigs sacrificed by cervical dislocation. The isolated gallbladders are cleaned of adherent connective tissue and cut into two rings from each animal (2-4 mm in length). The rings are subsequently suspended in organ chambers containing a physiological salt solution (118.4 mM NaCl, 4.7 mM KCl, 1.2 mM MgSO4, 2.5 mM CaCl2, 1.2 mM KH2 […], 25 mM NaHCO3, 11.1 mM dextrose). The bathing solution is maintained at 37° C. and aerated with 95% O2 /5% CO2. Tissues are connected via gold chains and stainless steel mounting wires to isometric force displacement transducers (Grass, Model FT03 D). Responses are then recorded on a polygraph (Grass, Model 7E).
Rings are gradually stretched (over a 120 min. period) to a basal resting tension of 1 gm which is maintained throughout the experiment. During the basal tension adjustment period, the rings are exposed to acetylcholine (10^-6 M) four times to verify tissue contractility. The tissues are then exposed to a submaximal dose of sulfated CCK-8 (Sigma, 3×10^-9 M). After obtaining a stable response, the tissues are washed out 3 times rapidly and every 5 to 10 minutes for 1 hour to reestablish a stable baseline.
Compounds are dissolved in dimethylsulfoxide ([…]) followed by a concentration-response curve to sulfated CCK-8 (10^-10 to 10^-6 M) in the presence of the highest dose of the test compound. As a final test, ACH (10 mM) is added to induce maximal contraction. A minimum of three determinations of activity are made for each test compound.

Regarding `CC(C)N(C(=O)CN1C(=O)C(Cc2n[nH]c3ccccc23)C(=O)N(c2ccccc2)c2ccccc21)c1ccc2c(c1)OCO2` (centres unmarked) [Example 77, 2-[3-(1H-Indazol-3-ylmethyl)-2,4-dioxo-5-phenyl-2,3,4,5-tetrahydrobenzo[b][1,4]diazepin-1-yl]-N-isopropyl-N-(3,4-methylenedioxy-phenyl) acetamide], the activation at 30 µM is 120%. Also, the activation at 1 µM (1 × 10^-6 M test compound) stood at 78%.

Consider `COc1ccc(N(C(=O)CN2C(=O)C(Cc3cc(C)nn3Cc3ccccc3)C(=O)N(c3ccccc3)c3ccccc32)C(C)C)cc1` (centres unmarked) [Example 54, 2-[3-(2-Benzyl-5-methyl-2H-pyrazol-3ylmethyl)-2,4-dioxo-5-phenyl-2,3,4,5-tetrahydro-benzo[b][1,4]diazepin-1-yl]-N-isopropyl-N-(4-methoxy-phenyl)-acetamide], for which the activation at 30 µM was 43%. For the setting “1 × 10^-6 M test compound”, the activation at 1 µM is 63%.

With `COc1cccc(N(C(=O)CN2C(=O)C(Cc3n[nH]c4ccccc34)C(=O)N(c3ccccc3)c3ccccc32)C(C)C)c1` (centres unmarked) [Example 79, 2-[3-(1H-Indazol-3-ylmethyl)-2,4-dioxo-5-phenyl-2,3,4,5-tetrahydrobenzo[b][1,4]diazepin-1-yl]-N-isopropyl-N-(3-methoxy-phenyl) acetamide], the activation at 30 µM stood at 93%. Besides, the activation at 1 µM (1 × 10^-6 M test compound) amounted to 92%.

For the compound `COc1ccc(N(C(=O)CN2C(=O)C(C)(CC(=O)Nc3ccccc3)C(=O)N(c3cccnc3)c3ccccc32)C(C)C)cc1` (centres unmarked) [Example 84, N-Isopropyl-N-[4-methoxyphenyl]-2-[3-methyl-2,4-dioxo-3-phenylcarbamoylmethyl-5-pyridin-3-yl-2,3,4,5-tetrahydrobenzo[b][1,4]diazepin-1-yl) acetamide], the activation at 30 µM amounted to 96%. Besides, the activation at 1 µM (1 × 10^-6 M test compound) amounted to 96%.

Turning to `CC(C)N(C(=O)CN1C(=O)C(C)(C(C)C(=O)c2ccccc2)C(=O)N(c2ccccc2)c2ccccc21)c1ccccc1` (centres unmarked) [Example 8, N-Isopropyl-2-[3-methyl-2,4-dioxo-3-(1-phenyl-1-oxoprop-2-yl)-5-phenyl-2,3,4,5-tetrahydro-benzo[b][1,4]diazepin-1-yl]-N-phenyl acetamide], the “%Contraction (1 × 10^-6 M)” value (1 × 10^-6 M test compound) was 16%.

As to `COc1ccc(N(C(=O)CN2C(=O)C(Cc3n[nH]c4ccccc34)C(=O)N(c3ccsc3)c3ccccc32)C(C)C)cc1` (centres unmarked) [Example 58, 2-[3-(1H-Indazol-3-ylmethyl)-2,4-dioxo-5-thiophen-3-yl-2,3,4,5-tetrahydro-benzo[b][1,4]diazepin-1-yl]-N-isopropyl-N-(4-methoxy-phenyl)-acetamide], the activation at 30 µM was 95%. Moreover, the activation at 1 µM (1 × 10^-6 M test compound) was determined as 80%.

As for `COc1ccc(N(C(=O)CN2C(=O)C(Cc3n[nH]c4ccccc34)C(=O)N(c3ccccc3)c3cc(F)c(F)cc32)C(C)C)cc1` (centres unmarked) [Example 67, 2-[7,8-Difluoro-3-(1H-indazol-3-ylmethyl)-2,4-dioxo-5-phenyl-2,3,4,5-tetrahydro-benzo[b][1,4]diazepin-1-yl]-N-isopropyl-N-(4-methoxy-phenyl)-acetamide], the activation at 30 µM was 102%. Further, the activation at 1 µM (1 × 10^-6 M test compound) was 78%.

For the compound `COc1ccc(N(C(=O)CN2C(=O)C(Cc3coc4ccccc34)C(=O)N(c3ccccc3)c3ccccc32)C(C)C)cc1` (centres unmarked) [Example 32], the activation at 1 µM (1 × 10^-6 M test compound) is 38%.

In the case of `CC(C)N(C(=O)CN1C(=O)C(Cc2n[nH]c3ccccc23)C(=O)N(c2ccccc2)c2ccccc21)c1ccc(F)cc1` (centres unmarked) [Example 57, N-(4-Fluoro-phenyl)-2-[3-(1H-indazol-3-ylmethyl)-2,4-dioxo-5-phenyl-2,3,4,5-tetrahydro-benzo[b][1,4]diazepin-1-yl]-N-isopropyl-acetamide], the activation at 30 µM was 134%. Also, the activation at 1 µM (1 × 10^-6 M test compound) stood at 99%.

For `CC(C)N(C(=O)CN1C(=O)C(Cc2n[nH]c3cc(F)ccc23)C(=O)N(c2ccccc2)c2ccccc21)c1ccc(OC(F)(F)F)cc1` (centres unmarked) [Example 70, 2-[3-(6-Fluoro-1H-indazol-3-ylmethyl)-2,4-dioxo-5-phenyl-2,3,4,5-tetrahydro-benzo[b][1,4]diazepin-1-yl]-N-isopropyl-N-(4-trifluoromethoxy-phenyl)-acetamide], the activation at 30 µM was 73%. In addition, for the setting “1 × 10^-6 M test compound”, the activation at 1 µM turned out to be 66%.

Take `CC(C)N(C(=O)CN1C(=O)C(Cc2n[nH]c3ccccc23)C(=O)N(c2ccccc2)c2ccccc21)c1ccc(C(F)(F)F)cc1` (centres unmarked) [Example 52, 2-[3-(1H-Indazol-3-ylmethyl)-2,4-dioxo-5-phenyl-2,3,4,5-tetrahydro-benzo[b][1,4]diazepin-1-yl]-N-isopropyl-N-(4-trifluoromethyl-phenyl)-acetamide]: the activation at 30 µM came to 96%. The activation at 1 µM (1 × 10^-6 M test compound) is 70%.

Take `COc1ccc(N(C(=O)CN2C(=O)C(C)(Cc3c[nH]c4ccccc34)C(=O)N(c3ccccc3)c3ccccc32)C(C)C)cc1` (centres unmarked) [Example 23, 2-[3-(1H-indol-3-ylmethyl)-3-methyl-2,4-dioxo-5-phenyl-2,3,4,5-tetrahydro-benzo[b][1,4]diazepin-1-yl]-N-isopropyl-N-(4-methoxy-phenyl) acetamide]: the activation at 30 µM was 50%.

For the compound `COc1ccc(N(C(=O)CN2C(=O)C(C)(CC(=O)Nc3cccc(F)c3)C(=O)N(c3ccccc3)c3ccccc32)C(C)C)cc1` (centres unmarked) [Example 25, N-Isopropyl-N-(4-methoxy-phenyl)-2-[3-(3-fluoro-phenylcarbamoylmethyl)-3-methyl-2,4-dioxo-5-phenyl-2,3,4,5-tetrahydro-benzo[b][1,4]diazepin-1-yl]acetamide], the activation at 1 µM (1 × 10^-6 M test compound) turned out to be 88%.

For `COc1ccc(N(C(=O)CN2C(=O)C(Cc3n[nH]c4ncccc34)C(=O)N(c3ccccc3)c3ccccc32)C(C)C)cc1` (centres unmarked) [Example 50, 2-[2,4-Dioxo-5-phenyl-3-(1H-pyrazolo[3,4-b]pyridin-3-ylmethyl)-2,3,4,5-tetrahydro-benzo[b][1,4]diazepin-1-yl]-N-isopropyl-N-(4-methoxy-phenyl)-acetamide], the activation at 30 µM came out at 94%. The activation at 1 µM (1 × 10^-6 M test compound) worked out at 83%.

In the case of `COc1ccc(N(C(=O)CN2C(=O)C(C)(Cc3n[nH]c4ccccc34)C(=O)N(c3cccnc3)c3ccccc32)C(C)C)cc1` (centres unmarked) [Example 74, 2-[3-(1H-Indazol-3-ylmethyl)-3-methyl-2,4-dioxo-5-pyridin-3-yl-2,3,4,5-tetrahydro-benzo[b][1,4]diazepin-1-yl]-N-isopropyl-N-(4-methoxy-phenyl)-acetamide], the activation at 30 µM is 88%. For the same compound, the activation at 1 µM (1 × 10^-6 M test compound) amounted to 86%.

Consider `COc1ccc(N(C(=O)CN2C(=O)C(Cc3n[nH]c4c3CCCC4)C(=O)N(c3ccccc3)c3ccccc32)C(C)C)cc1` (centres unmarked) [Example 51, 2-[2,4-Dioxo-5-phenyl-3-(4,5,6,7-tetrahydro-1H-indazol-3-ylmethyl)-2,3,4,5-tetrahydro-benzo[b][1,4]diazepin-1-yl]-N-isopropyl-N-(4-methoxy-phenyl)-acetamide], for which the activation at 30 µM is 83%. For the same compound, the activation at 1 µM (1 × 10^-6 M test compound) is 82%.

As to `CC(=O)n1nc(CC2C(=O)N(CC(=O)N(c3ccc(F)cc3)C(C)C)c3ccccc3N(c3ccccc3)C2=O)c2ccc(F)cc21` (centres unmarked) [Example 64, 2-[3-(1-Acetyl-6-fluoro-1H-indazol-3-ylmethyl)-2,4-dioxo-5-phenyl-2,3,4,5,tetrahydro-benzo[b][1,4]diazepin-1-yl]-N-(4-fluoro-phenyl)-N-isopropyl-acetamide], the activation at 30 µM amounted to 98%. Also, for the setting “1 × 10^-6 M test compound”, the activation at 1 µM was found to be 67%.

As for `COc1ccc(N(C(=O)CN2C(=O)C(C)(CC(=O)Nc3ccccc3)C(=O)N(c3ccc(Cl)cc3)c3ccccc32)C(C)C)cc1` (centres unmarked) [Example 41], under “1 × 10^-6 M test compound”, the activation at 1 µM was 40%.

For the compound `COc1ccc(N(C(=O)CN2C(=O)C(Cc3cc4ccccc4[nH]3)(OC)C(=O)N(c3ccccc3)c3ccccc32)C(C)C)cc1` (centres unmarked) [Example 20, 2-[3-(1H-indol-2-ylmethyl)-3-methoxy-2,4-dioxo-5-phenyl-2,3,4,5-tetrahydro-benzo[b][1,4]diazepin-1-yl]-N-isopropyl-N-(4-methoxyphenyl) acetamide], the activation at 30 µM was 66%.

Regarding `COc1ccc(N(C(=O)CN2C(=O)C(Cc3noc4ccccc34)C(=O)N(c3ccccc3)c3ccccc32)C(C)C)cc1` (centres unmarked) [Example 47, 2-(3-Benzo[d]isoxazol-3-ylmethyl-2,4-dioxo-5-phenyl-2,3,4,5-tetrahydro-benzo[b][1,4]diazepin-1-yl)-N-isopropyl-N-(4-methoxy-phenyl) acetamide], where the note is “1 × 10^-6 M test compound”, the activation at 1 µM stood at 92%.

Regarding `COc1ccc(N(C(=O)CN2C(=O)C(Cn3cnc4ccccc43)C(=O)N(c3ccccc3)c3ccccc32)C(C)C)cc1` (centres unmarked) [Example 56, 2-(3-Benzoimidazol-1-ylmethyl-2,4-dioxo-5-phenyl-2,3,4,5-tetrahydro-benzo[b][1,4]diazepin-1-yl]-N-isopropyl-N-(4-methoxy-phenyl)-acetamide], the activation at 30 µM came out at 98%. For the setting “1 × 10^-6 M test compound”, the activation at 1 µM was found to be 90%.
